Results as given in ChEMBL document CHEMBL1201862, “PubChem BioAssay data set” (2004).
Each block holds one compound with its values, some of them ahead of it. Activity calls are given as the source filed them.

Experiments:
Assay type in all cases: functional
[1] = target: T1, Ubiquitin-conjugating enzyme E2 N (Homo sapiens, UniProt P61088);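 note: Dose-response confirmation in a TR-FRET assay detecting UBC13-driven polyubiquitin chain formation, inhibition measured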
T1 sequence (P61088 whole entry): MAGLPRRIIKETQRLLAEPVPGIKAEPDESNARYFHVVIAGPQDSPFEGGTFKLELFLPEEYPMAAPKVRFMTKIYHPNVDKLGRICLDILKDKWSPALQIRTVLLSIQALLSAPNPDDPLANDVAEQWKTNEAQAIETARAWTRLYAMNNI

[2] = target: Apoptotic protease-activating factor 1 (Homo sapiens, UniProt O14727)
Caspase-3 [3] = target: T2, Caspase-3 (Homo sapiens, UniProt P42574); assay: caspase-3 inhibitors as off-family protease, SAR follow-up, selectivity assay for SENP protease inhibitor project, biochemical, luminescence, set 2 (AID 588599)
T2 sequence (P42574 whole entry): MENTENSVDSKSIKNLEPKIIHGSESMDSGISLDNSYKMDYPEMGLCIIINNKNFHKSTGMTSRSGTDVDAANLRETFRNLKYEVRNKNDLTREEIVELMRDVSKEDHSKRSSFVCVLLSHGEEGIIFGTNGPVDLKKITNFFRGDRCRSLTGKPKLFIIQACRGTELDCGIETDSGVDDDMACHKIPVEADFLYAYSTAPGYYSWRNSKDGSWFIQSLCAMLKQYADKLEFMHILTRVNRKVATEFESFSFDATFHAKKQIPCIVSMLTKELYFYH

[4] = target: T3, Sentrin-specific protease 8 (Homo sapiens, UniProt Q96LD8); assay: SENP8 protease inhibitors, SAR follow-up, biochemical, luminescence, set 2 (AID 588601)
T3 sequence (Q96LD8 whole entry): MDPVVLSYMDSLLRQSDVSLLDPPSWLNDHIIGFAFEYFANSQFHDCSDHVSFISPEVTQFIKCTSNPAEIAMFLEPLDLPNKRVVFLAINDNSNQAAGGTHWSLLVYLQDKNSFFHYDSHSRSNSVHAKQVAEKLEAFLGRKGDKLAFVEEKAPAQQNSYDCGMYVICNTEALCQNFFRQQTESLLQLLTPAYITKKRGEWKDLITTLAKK

[5] = target: T4, Sentrin-specific protease 7 (Homo sapiens, UniProt Q9BQF6); assay: SENP7 protease inhibitors, SAR follow-up, biochemical, luminescence, set 2 (AID 588600)
T4 sequence (Q9BQF6 whole entry): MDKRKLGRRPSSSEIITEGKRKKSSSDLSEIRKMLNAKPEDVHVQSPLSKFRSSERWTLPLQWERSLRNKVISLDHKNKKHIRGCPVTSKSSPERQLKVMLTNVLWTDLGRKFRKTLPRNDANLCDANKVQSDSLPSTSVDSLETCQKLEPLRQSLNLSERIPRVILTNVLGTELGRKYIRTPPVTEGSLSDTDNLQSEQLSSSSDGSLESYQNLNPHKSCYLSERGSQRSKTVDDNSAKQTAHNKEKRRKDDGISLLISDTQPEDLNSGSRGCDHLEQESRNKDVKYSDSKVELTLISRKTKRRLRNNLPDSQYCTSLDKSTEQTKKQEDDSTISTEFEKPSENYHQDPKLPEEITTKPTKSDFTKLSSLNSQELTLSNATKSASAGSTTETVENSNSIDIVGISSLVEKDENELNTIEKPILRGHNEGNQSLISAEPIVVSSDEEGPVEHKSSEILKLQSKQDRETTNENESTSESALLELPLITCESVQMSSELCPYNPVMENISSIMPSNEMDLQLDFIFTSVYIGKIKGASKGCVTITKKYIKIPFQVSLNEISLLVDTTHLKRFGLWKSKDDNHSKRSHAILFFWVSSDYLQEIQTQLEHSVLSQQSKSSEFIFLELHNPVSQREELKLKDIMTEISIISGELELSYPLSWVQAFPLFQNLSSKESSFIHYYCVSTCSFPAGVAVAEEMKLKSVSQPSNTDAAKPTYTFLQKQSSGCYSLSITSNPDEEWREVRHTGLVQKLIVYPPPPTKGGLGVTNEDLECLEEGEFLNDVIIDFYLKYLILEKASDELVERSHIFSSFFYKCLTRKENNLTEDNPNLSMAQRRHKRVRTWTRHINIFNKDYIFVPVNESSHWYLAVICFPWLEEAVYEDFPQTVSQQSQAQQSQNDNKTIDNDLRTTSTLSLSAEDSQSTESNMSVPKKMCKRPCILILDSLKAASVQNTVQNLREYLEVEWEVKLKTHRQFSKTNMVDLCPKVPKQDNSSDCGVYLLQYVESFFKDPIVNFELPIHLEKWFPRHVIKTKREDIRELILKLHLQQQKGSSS

[6] = target: T5, Sentrin-specific protease 6 (Homo sapiens, UniProt Q9GZR1); assay: SENP6 protease inhibitors, SAR follow-up, biochemical, luminescence, set 2 (AID 588598)
T5 sequence (Q9GZR1 whole entry): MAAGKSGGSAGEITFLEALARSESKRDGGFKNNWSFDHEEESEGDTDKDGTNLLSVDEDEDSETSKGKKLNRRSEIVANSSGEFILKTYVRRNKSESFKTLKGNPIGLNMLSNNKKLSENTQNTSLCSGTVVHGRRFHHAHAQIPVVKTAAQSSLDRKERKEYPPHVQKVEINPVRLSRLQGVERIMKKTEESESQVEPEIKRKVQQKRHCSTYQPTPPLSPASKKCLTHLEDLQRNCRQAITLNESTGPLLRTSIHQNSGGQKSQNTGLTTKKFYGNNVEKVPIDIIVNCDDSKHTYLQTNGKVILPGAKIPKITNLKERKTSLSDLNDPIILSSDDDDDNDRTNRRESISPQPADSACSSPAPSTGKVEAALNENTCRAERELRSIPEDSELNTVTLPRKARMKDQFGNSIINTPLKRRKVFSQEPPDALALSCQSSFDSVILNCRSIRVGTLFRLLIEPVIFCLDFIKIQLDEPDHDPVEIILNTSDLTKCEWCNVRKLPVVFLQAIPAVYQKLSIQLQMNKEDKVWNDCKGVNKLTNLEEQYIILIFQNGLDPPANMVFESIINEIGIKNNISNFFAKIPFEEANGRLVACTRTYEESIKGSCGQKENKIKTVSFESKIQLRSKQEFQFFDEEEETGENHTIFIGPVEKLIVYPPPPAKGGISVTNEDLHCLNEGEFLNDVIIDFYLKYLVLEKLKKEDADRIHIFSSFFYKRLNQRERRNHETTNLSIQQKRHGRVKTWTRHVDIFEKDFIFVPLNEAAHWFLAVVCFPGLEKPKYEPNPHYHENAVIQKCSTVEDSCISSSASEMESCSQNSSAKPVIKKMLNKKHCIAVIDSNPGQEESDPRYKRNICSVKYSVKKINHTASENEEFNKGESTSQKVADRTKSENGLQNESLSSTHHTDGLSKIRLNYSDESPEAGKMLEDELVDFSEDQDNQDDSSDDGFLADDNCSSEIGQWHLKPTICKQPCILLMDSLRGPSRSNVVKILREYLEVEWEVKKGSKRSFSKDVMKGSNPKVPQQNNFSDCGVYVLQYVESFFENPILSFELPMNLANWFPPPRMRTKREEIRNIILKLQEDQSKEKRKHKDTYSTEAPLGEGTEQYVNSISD

[7] = target: Multidrug resistance protein CDR1 (Candida albicans, UniProt P43071); assay: CaCdr1 efflux pump inhibitor potency, dose response, singleplex, Cherry Pick2 set (AID 623996); conditions: read-out: EC50_MICROM
[8] = target: T3, Sentrin-specific protease 8; assay: SENP8 protease inhibitors, SAR follow-up, biochemical, luminescence (AID 504501)
Caspase-3 [9] = target: T2, Caspase-3; assay: SAR Analysis of small molecule inhibitors of Sentrin-specific proteases (SENPs) using a Caspase-3 Selectivity assay. [Related pubchem assays (depositor defined):AID2540, AID2599, AID434973, AID489001]
[10] = target: T5, Sentrin-specific protease 6; assay: SAR Analysis of small molecule inhibitors of Sentrin-specific protease 6 (SENP6) using a Luminescent assay. [Related pubchem assays (depositor defined):AID2582, AID2599]
[11] = target: T4, Sentrin-specific protease 7; assay: SENP7 protease inhibitors, SAR follow-up, biochemical, luminescence (AID 504497)
[12] = target: T6, High affinity choline transporter 1 (Homo sapiens, UniProt Q9GZV3); assay: CHT activators, dose response, cell-based, 10-point CRC, membrane potential dye (AID 602376)
T6 sequence (Q9GZV3 whole entry): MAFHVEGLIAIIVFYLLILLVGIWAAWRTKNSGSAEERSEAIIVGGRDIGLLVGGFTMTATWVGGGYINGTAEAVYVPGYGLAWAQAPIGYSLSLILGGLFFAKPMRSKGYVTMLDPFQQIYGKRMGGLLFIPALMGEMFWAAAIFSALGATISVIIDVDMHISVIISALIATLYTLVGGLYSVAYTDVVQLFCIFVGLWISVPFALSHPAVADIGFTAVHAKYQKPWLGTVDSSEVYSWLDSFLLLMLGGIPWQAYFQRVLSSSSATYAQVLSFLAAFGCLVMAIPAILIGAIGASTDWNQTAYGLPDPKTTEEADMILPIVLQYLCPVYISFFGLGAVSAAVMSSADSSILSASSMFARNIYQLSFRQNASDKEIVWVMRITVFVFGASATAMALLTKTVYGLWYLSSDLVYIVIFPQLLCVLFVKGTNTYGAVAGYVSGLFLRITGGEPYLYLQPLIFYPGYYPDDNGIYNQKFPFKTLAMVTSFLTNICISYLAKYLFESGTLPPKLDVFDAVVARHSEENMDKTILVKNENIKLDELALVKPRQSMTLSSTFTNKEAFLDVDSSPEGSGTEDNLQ

[13] = target: Serine/threonine-protein kinase pim-1 (Homo sapiens, UniProt P11309)
[14] = target: Cell division cycle 7-related protein kinase (Homo sapiens, UniProt O00311);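 note: value obtained from a kinome-wide kinase panel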
[15] = target: Homeodomain-interacting protein kinase 2 (Homo sapiens, UniProt Q9H2X6);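 note: measured within a kinome-wide kinase profiling panel, HIPK2 being one panel member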
[16] = target: MAP kinase-interacting serine/threonine-protein kinase 2 (Homo sapiens, UniProt Q9HBH9)
[17] = target: Interleukin-1 receptor-associated kinase 4 (Homo sapiens, UniProt Q9NWZ3)
[18] = target: Glycogen synthase kinase-3 beta (Homo sapiens, UniProt P49841);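 note: value comes from a broad kinome profiling panel, with GSK3B as the panel member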
[19] = target: cAMP-dependent protein kinase catalytic subunit alpha (Homo sapiens, UniProt P17612)
[20] = target: Dual specificity protein kinase CLK4 (Homo sapiens, UniProt Q9HAZ1)
[21] = target: Mitogen-activated protein kinase kinase kinase kinase 4 (Homo sapiens, UniProt O95819)
[22] = target: Glycogen synthase kinase-3 alpha (Homo sapiens, UniProt P49840);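 note: GSK3A result taken from a broad kinome-wide kinase panel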

Mitogen-activated protein kinase kinase kinase kinase 4, sequence (O95819 whole entry): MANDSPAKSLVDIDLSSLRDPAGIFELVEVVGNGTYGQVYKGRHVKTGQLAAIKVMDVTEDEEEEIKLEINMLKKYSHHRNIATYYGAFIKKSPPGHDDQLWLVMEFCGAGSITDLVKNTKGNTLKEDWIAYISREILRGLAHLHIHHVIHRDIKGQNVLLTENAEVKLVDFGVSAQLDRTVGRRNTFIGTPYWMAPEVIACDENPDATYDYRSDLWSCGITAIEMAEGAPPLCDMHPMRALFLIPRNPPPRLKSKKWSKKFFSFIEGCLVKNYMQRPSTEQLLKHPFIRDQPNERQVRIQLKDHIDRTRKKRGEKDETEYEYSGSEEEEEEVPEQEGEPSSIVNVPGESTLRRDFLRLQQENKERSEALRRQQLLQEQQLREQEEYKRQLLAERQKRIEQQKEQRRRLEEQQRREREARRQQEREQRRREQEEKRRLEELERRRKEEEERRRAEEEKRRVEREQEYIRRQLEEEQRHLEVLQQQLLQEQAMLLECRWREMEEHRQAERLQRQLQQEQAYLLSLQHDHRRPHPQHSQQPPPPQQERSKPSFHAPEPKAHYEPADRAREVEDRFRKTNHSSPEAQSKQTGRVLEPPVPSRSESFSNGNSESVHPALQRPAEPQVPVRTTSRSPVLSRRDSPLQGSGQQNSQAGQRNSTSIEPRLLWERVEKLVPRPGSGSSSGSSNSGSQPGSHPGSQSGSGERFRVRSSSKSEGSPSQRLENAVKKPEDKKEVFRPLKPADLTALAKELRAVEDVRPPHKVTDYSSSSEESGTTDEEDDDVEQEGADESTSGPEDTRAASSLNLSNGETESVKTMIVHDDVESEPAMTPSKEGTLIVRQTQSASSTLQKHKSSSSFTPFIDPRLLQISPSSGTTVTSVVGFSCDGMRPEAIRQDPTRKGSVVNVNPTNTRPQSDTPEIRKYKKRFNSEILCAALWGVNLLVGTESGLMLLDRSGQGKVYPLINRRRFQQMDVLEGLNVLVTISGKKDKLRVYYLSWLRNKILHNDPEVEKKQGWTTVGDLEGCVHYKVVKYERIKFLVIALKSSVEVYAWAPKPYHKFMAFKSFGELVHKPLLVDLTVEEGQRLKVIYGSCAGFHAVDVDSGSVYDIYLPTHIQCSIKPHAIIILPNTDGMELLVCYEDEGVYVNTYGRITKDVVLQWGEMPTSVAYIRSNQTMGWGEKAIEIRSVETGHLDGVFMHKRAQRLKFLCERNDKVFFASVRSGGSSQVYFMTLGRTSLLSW
Serine/threonine-protein kinase pim-1, sequence (P11309 whole entry): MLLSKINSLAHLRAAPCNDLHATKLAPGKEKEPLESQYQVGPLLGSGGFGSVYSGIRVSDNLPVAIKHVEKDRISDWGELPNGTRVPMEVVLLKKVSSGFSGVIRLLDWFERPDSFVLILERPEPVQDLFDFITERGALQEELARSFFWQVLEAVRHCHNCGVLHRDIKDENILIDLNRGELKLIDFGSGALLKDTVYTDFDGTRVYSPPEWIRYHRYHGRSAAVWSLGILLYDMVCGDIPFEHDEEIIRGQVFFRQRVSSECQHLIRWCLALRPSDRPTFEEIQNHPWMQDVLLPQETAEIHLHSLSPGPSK
Interleukin-1 receptor-associated kinase 4, sequence (Q9NWZ3 whole entry): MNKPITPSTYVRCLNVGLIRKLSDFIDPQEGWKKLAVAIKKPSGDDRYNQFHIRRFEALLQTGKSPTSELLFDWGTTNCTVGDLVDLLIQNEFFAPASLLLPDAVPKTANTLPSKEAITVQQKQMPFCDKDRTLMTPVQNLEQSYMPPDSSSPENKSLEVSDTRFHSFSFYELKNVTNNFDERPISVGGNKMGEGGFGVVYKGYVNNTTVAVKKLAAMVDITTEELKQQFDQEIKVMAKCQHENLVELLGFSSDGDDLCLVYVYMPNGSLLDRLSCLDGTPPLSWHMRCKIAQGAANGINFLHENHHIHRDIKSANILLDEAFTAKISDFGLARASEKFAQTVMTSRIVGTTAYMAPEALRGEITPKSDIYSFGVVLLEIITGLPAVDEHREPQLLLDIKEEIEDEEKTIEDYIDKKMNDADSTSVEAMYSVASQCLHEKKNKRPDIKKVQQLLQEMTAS
Homeodomain-interacting protein kinase 2, sequence (Q9H2X6 whole entry): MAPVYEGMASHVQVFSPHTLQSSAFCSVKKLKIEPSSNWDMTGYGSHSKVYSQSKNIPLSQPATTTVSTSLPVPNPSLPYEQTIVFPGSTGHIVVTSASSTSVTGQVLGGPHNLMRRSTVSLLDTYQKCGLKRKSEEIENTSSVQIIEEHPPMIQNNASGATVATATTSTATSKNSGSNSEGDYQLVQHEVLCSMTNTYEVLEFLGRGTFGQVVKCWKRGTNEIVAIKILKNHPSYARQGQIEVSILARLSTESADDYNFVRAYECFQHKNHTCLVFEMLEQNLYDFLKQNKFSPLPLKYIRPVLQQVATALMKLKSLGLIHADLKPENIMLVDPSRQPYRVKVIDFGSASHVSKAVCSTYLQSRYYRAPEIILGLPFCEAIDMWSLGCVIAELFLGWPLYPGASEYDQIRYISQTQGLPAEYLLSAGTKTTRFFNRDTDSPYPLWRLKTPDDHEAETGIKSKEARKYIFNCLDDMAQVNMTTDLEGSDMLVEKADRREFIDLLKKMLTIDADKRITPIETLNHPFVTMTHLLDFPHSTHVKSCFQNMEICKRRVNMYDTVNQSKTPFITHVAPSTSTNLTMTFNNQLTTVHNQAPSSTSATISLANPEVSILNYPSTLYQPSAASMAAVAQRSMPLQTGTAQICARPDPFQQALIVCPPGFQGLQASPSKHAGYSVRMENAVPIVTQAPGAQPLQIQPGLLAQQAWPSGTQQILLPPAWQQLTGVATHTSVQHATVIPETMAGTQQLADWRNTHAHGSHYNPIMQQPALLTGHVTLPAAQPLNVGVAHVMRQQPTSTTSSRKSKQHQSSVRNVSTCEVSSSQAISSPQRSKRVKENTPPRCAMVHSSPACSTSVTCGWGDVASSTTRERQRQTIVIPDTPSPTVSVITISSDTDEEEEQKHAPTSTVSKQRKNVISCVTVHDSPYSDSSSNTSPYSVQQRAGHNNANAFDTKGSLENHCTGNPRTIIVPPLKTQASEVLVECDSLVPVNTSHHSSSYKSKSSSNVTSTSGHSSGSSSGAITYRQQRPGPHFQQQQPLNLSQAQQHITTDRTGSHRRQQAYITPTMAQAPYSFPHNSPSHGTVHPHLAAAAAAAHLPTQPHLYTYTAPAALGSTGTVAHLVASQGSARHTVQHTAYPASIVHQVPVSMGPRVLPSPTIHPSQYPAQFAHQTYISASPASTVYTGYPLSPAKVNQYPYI
Dual specificity protein kinase CLK4, sequence (Q9HAZ1 whole entry): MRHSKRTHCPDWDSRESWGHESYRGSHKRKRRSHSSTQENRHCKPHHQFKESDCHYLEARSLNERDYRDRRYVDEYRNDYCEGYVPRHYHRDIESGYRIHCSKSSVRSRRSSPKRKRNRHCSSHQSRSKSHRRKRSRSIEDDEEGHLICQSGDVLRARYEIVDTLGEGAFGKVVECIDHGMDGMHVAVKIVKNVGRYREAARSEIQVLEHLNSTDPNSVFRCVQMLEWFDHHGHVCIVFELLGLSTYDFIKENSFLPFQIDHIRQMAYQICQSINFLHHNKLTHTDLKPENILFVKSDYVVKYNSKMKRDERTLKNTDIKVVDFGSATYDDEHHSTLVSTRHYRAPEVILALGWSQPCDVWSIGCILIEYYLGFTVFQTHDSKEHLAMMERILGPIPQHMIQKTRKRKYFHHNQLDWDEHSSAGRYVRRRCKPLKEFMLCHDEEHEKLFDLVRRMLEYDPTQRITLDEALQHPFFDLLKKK
Apoptotic protease-activating factor 1, sequence (O14727 whole entry): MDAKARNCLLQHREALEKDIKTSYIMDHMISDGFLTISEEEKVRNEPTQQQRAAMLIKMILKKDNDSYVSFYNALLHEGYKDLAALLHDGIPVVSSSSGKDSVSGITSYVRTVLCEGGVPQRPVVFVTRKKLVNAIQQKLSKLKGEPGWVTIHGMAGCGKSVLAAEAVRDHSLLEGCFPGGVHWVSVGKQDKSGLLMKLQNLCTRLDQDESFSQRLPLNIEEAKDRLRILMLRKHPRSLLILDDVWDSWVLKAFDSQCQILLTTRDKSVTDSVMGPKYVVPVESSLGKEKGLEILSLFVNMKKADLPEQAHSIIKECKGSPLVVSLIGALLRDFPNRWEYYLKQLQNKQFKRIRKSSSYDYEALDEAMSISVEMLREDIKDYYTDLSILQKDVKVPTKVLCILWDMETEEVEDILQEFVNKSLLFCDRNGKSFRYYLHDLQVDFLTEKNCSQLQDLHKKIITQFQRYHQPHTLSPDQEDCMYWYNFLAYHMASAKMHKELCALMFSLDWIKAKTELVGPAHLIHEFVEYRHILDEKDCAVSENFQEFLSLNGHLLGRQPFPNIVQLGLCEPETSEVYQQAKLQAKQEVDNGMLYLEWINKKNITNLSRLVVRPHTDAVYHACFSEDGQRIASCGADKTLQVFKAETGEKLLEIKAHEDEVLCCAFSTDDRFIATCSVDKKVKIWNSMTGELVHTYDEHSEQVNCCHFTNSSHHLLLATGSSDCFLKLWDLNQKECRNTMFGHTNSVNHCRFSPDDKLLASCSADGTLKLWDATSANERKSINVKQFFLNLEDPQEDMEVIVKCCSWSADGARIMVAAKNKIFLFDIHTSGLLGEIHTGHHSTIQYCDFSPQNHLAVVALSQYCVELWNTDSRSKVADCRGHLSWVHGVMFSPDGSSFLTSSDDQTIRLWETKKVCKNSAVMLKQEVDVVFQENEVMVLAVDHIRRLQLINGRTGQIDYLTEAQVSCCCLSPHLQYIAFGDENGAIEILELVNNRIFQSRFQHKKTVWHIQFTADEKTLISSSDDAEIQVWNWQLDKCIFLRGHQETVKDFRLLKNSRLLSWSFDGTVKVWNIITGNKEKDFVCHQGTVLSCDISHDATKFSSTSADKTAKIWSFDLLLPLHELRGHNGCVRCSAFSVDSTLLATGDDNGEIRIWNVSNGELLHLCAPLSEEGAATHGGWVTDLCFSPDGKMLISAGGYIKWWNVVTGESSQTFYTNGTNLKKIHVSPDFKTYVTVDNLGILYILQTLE

- IC50 [1]: > 20 µM (inactive)
- IC50 [2]: > 100 µM (inactive)
SMILES: COc1ccccc1C(CNC(=O)CNC(=O)c1ccccc1Cl)N1CCCC1 (stereo not drawn)

- IC50 (Caspase-3 [3]): > 99 µM (inactive)
- IC50 [5]: > 99 µM (inactive)
- IC50 [6]: > 99 µM (inactive)
SMILES: O=C(C(=O)N1CCCc2ccccc21)c1c[nH]c2ccccc12
- IC50 [4]: > 99 µM (inactive)

SMILES: COc1ccc2c(c1)OC[C@H]1[C@H]2N2C(=O)c3ccc(C)cc3NC(=O)[C@@]2(C)[C@H]1c1ccccc1
- EC50 [7]: 17.3 µM (active)

- IC50 (Caspase-3 [9]): > 99 µM (inactive)
- IC50 [10]: > 99 µM (inactive)
- IC50 [11]: > 99 µM (inactive)
SMILES: CS(=O)(=O)c1ccc2nc(NC(=O)c3c(F)cccc3F)sc2c1
- IC50 [8]: > 99 µM (inactive)

SMILES: CCCCNC(=O)COCc1cc(-c2ccc3c(c2)OCO3)on1
- EC50 [12]: 8.04 µM (active)

- Ki [13]: 7.94 µM (active)
- Ki [14]: 0.158 µM (active)
- Ki [15]: > 3.16 µM (inactive)
- Ki [16]: > 10 µM (inactive)
- Ki [17]: > 10 µM (inactive)
- Ki [18]: 0.794 µM (active)
- Ki [19]: > 7.94 µM (inactive)
- Ki [20]: 0.1 µM (active)
- Ki [21]: 2 µM (active)
SMILES: NC(=O)c1ccc(-c2ccncc2)cc1NCc1cccc(F)c1

- Ki [22]: 3.16 µM (active)
- Ki [21]: 5.01 µM (active)
SMILES: Cc1cc(O)nc2[nH]nc(-c3cccc(-c4cccc(C#N)c4)c3)c12
